The results in this text go back to patent US20120115852A1, “HETEROCYCLIC COMPOUNDS AS AUTOTAXIN INHIBITORS” (Merck Patent Gesellschaft Mit Beschrankter Haftung, priority 2009, published 2012).

The target in this assay is T1, recombinant autotaxin (Homo sapiens, UniProt Q13822).
T1 construct: made in house; host or cells: Hi5 insect cells (baculovirus)
In words: Autotaxin test (enzyme test), Amplex Red fluorescence with LPC substrate. The class given is biochemical. To be noted: autotaxin inhibition (enzyme test); for remaining activity at 10 µM: 10 μM compound, read-out: % Control at 10 μM. How it is done: Autotaxin Inhibition (Enzyme Test)
Autotaxin Test (Enzyme Test)
The autotaxin activity is measured indirectly using Amplex Red reagent. Amplex Red is measured here as fluorogenic indicator for the H2O2 formed. In detail, autotaxin converts the substrate lysophosphatidylcholine (LPC) into phosphocholine and lysophosphatidylic acid (LPA). After this reaction, the phosphocholine is reacted with alkaline phosphatase to give inorganic phosphate and choline. In the next step, choline is oxidised by choline oxidase to give betaine, with formation of H2O2. H2O2 reacts with Amplex Red reagent in the presence of peroxidase (horseradish peroxidase) in a 1:1 stoichiometry and forms the highly fluorescent resorufin. The fluorescence is measured in a reaction-dependent kinetic mode in order that fluorescent signals from possible other fluorescent substances which are not involved in the reaction can be corrected out.
3 μl of a standard solution or of the test substances (substances with the name A(n)) in individual concentrations dissolved in 20 mM Hepes pH 7.2 with a maximum of 11% of DMSO are pre-incubated together with 20 μl (19 ng) of highly purified recombinant autotaxin in test buffer in a black microtitre plate provided with 384 wells at 22° C. for 30 min. The reaction is then initiated by addition of 10 μl of L-α-lysophosphatidylcholine (LPC), where the final concentration of LPC is 75 μM. The mixture is incubated at 37° C. for 90 min. After the incubation, Amplex Red reagent, peroxidase (horseradish peroxidase) and choline oxidase is added, and the fluorescence is immediately measured at 612 nm with excitation of 485 nm in a “Tecan Ultra multimode” reader. The activity of autotaxin is calculated indirectly via detection of the H2O2 formed.
• Microtitre plate: PS microplate, 384 wells, small volume, black Corning, Cat#3677 • Protein: recombinant autotaxin (Baculovirale Hi5 Expression) • Substrate: L-α-lysophosphatidylcholine (chicken egg)); Avanti Polar Lipids #830071 P • Standard: C14 LPA, Avanti Polar Lipids, Cat#857120P • Detection reagent: Amplex Red reagent; Invitrogen #A12222; 5 mg dissolved in 1.923 ml of DMSO peroxidase type VI-A (horseradish) from Sigma #P6782; 5 mg dissolved in 7.45 ml of test buffer, choline oxidase; Sigma # C5896; 50 U dissolved in 2.47 ml of test buffer • Detection reagent mix: 1:50 dilution of detection reagent in test buffer • Test buffer: 10 mM Tris HCl, Merck, Cat #1.08219, pH 8, 1 mM; CaCl2×2 H2O, Merck #1.02382

As to `Cn1cc(CCC(=O)N2CCN3C(=O)c4cc(-c5ccc(Cl)cc5)ccc4NC(=O)C3C2)cn1` (stereo not drawn) [Compound A26, 7-(4-Chlorophenyl)-2-[3-(1-methyl-1H-pyrazol-4-yl)-propionyl]-1,3,4,11a-tetrahydro-2H,10H-2,4a,10-triazadibenzo[a,d]cycloheptene-5,11-dione], the remaining activity at 10 µM came to 12% and the IC50 is over 1000 nM. Regarding `O=C1Nc2ccc(-c3ccc(Cl)cc3F)cc2C(=O)N2CCN(C(=O)CC3CC3)CC12` (stereo not drawn) [Compound A28, 7-(4-Chloro-2-fluorophenyl)-2-(2-cyclopropylacetyl)-1,3,4,11a-tetrahydro-2H,10H-2,4a,10-triaza-dibenzo[a,d]cycloheptene-5,11-dione], the remaining activity at 10 µM was 4% and the IC50 was over 1000 nM. For the compound `O=C1Nc2ccc(-c3ccc(Cl)cc3)cc2C(=O)N2CCN(C(=O)Cc3ccccn3)CC12` (stereo not drawn) [Compound A29, 7-(4-Chlorophenyl)-2-(2-pyridin-2-ylacetyl)-1,3,4,11a-tetrahydro-2H,10H-2,4a,10-triaza-dibenzo[a,d]cycloheptene-5,11-dione], the remaining activity at 10 µM is 51% and the IC50 was over 1000 nM. Take `O=C1Nc2ccc(-c3ccc(Cl)cc3F)cc2C(=O)N2CCN(C(=O)Cc3ccccn3)CC12` (stereo not drawn) [Compound A30, 7-(4-Chloro-2-fluorophenyl)-2-(2-pyridin-2-ylacetyl)-1,3,4,11a-tetrahydro-2H,10H-2,4a,10-triaza-dibenzo[a,d]cycloheptene-5,11-dione]: the remaining activity at 10 µM turned out to be 23% and the half-inhibitory concentration (IC50) was over 1000 nM.

Consider `O=C1Nc2ccc(-c3ccc(Cl)cc3F)cc2C(=O)N2CCN(C(=O)Cc3ccccc3)CC12` (stereo not drawn) [Compound A31, 7-(4-Chloro-2-fluorophenyl)-2-phenylacetyl-1,3,4,11a-tetrahydro-2H,10H-2,4a,10-triaza-dibenzo[a,d]cycloheptene-5,11-dione], for which the remaining activity at 10 µM is 17% and the IC50 was over 1000 nM.

On to `O=C1Nc2ccc(-c3ccc(Cl)cc3)cc2C(=O)N2CCN(C(=O)Cc3ccccc3)CC12` (stereo not drawn) [Compound A32, 7-(4-Chlorophenyl)-2-phenylacetyl-1,3,4,11a-tetrahydro-2H,10H-2,4a,10-triazadibenzo[a,d]-cycloheptene-5,11-dione], for which the remaining activity at 10 µM came out at 76%. As to `CC(C)(C)CCN1CCN2C(=O)c3cc(-c4ccc(Cl)cc4F)ccc3NC(=O)C2C1` (stereo not drawn) [Compound A33], the remaining activity at 10 µM amounted to 72% and the IC50 is over 1000 nM.

For `CC(C)(C)[C@H](O)C(=O)N1CCN2C(=O)c3cc(-c4ccc(Cl)cc4)ccc3NC(=O)C2C1` (stereo partly drawn) [Compound A34, 7-(4-Chlorophenyl)-2-((S)-2-hydroxy-3,3-dimethylbutyryl)-1,3,4,11a-tetrahydro-2H,10H-2,4a,10-triazadibenzo[a,d]cycloheptene-5,11-dione], the half-maximal inhibitory concentration (IC50) fell in the range of 100 to 1000 nM.

For `O=C(C(=O)N1CCN2C(=O)c3cc(-c4ccc(Cl)cc4)ccc3NC(=O)C2C1)c1ccccc1` (stereo not drawn) [Compound A35, 7-(4-Chlorophenyl)-2-(2-oxo-2-phenylacetyl)-1,3,4,11a-tetrahydro-2H,10H-2,4a,10-triaza-dibenzo[a,d]cycloheptene-5,11-dione], the remaining activity at 10 µM was found to be 11% and the IC50 is over 1000 nM. For `O=C1Nc2ccc(-c3ccc(Cl)cc3)cc2C(=O)N2CCN(C(=O)c3cscn3)CC12` (stereo not drawn) [Compound A36, 7-(4-Chlorophenyl)-2-(thiazole-4-carbonyl)-1,3,4,11a-tetrahydro-2H,10H-2,4a,10-triaza-dibenzo[a,d]cycloheptene-5,11-dione], the IC50 was in the range of 100 to 1000 nM. `Cc1nc(C(=O)N2CCN3C(=O)c4cc(-c5ccc(Cl)cc5)ccc4NC(=O)C3C2)c(N)s1` (stereo not drawn) [Compound A37, 2-(5-Amino-2-methylthiazole-4-carbonyl)-7-(4-chlorophenyl)-1,3,4,11a-tetrahydro-2H,10H-2,4a,10-triazadibenzo[a,d]cycloheptene-5,11-dione]: the remaining activity at 10 µM turned out to be 66% and the IC50 is over 1000 nM. The matching figures for `O=C1Nc2ccc(-c3ccc(Cl)cc3)cc2C(=O)N2CCN(C(=O)C(O)c3ccc(Cl)cc3)CC12` (stereo not drawn) [Compound A38, 7-(4-Chlorophenyl)-2-[2-(4-chlorophenyl)-2-hydroxyacetyl]-1,3,4,11a-tetrahydro-2H,10H-2,4a,10-triazadibenzo[a,d]cycloheptene-5,11-dione]: 35% and over 1000 nM.

As to `CC(O)(C(=O)N1CCN2C(=O)c3cc(-c4ccc(Cl)cc4)ccc3NC(=O)C2C1)c1ccccc1` (stereo not drawn) [Compound A39, 7-(4-Chlorophenyl)-2-(2-hydroxy-2-phenylpropionyl)-1,3,4,11a-tetrahydro-2H,10H-2,4a,10-triazadibenzo[a.d]cycloheptene-5,11-dione], the remaining activity at 10 µM was determined as 22% and the IC50 is over 1000 nM. In the same order, the values of `O=C1Nc2ccc(-c3ccc(Cl)cc3)cc2C(=O)N2CCN(C(=O)C(O)c3ccccc3Cl)CC12` (stereo not drawn) [Compound A40, 7-(4-Chlorophenyl)-2-[2-(2-chlorophenyl)-2-hydroxyacetyl]-1,3,4,11a-tetrahydro-2H,10H-2,4a,10-triazadibenzo[a,d]cycloheptene-5,11-dione] are 48% and over 1000 nM. As to `O=C1Nc2ccc(-c3ccc(Cl)cc3)cc2C(=O)N2CCN(C(=O)C(O)c3cccc(Cl)c3)CC12` (stereo not drawn) [Compound A41, 7-(4-Chlorophenyl)-2-[2-(3-chlorophenyl)-2-hydroxyacetyl]-1,3,4,11a-tetrahydro-2H,10H-2,4a,10-triazadibenzo[a,d]cycloheptene-5,11-dione], the remaining activity at 10 µM is 68% and the IC50 is over 1000 nM. In the same order, the values of `COC(C(=O)N1CCN2C(=O)c3cc(-c4ccc(Cl)cc4)ccc3NC(=O)C2C1)c1ccccc1` (stereo not drawn) [Compound A42, 7-(4-Chlorophenyl)-2-(2-methoxy-2-phenylacetyl)-1,3,4,11a-tetrahydro-2H,10H-2,4a,10-triaza-dibenzo[a,d]cycloheptene-5,11-dione] are 12% and over 1000 nM.

In the case of `O=C1Nc2ccc(-c3ccc(Cl)cc3)cc2C(=O)N2CCN(C(=O)[C@H](O)c3ccccc3)CC12` (stereo partly drawn) [Compound A43, 7-(4-Chlorophenyl)-2-((R)-2-hydroxy-2-phenylacetyl)-1,3,4,11a-tetrahydro-2H,10H-2,4a,10-triazadibenzo[a,d]cycloheptene-5,11-dione], the remaining activity at 10 µM was found to be 31% and the concentration for half-maximal inhibition (IC50) was over 1000 nM. The matching figures for `Cc1cccc(C(O)C(=O)N2CCN3C(=O)c4cc(-c5ccc(Cl)cc5)ccc4NC(=O)C3C2)c1` (stereo not drawn) [Compound A44, 7-(4-Chlorophenyl)-2-(2-hydroxy-2-m-tolylacetyl)-1,3,4,11a-tetrahydro-2H,10H-2,4a,10-triaza-dibenzo[a,d]cycloheptene-5,11-dione]: 48% and over 1000 nM. In the case of `O=C1Nc2ccc(-c3ccc(Cl)cc3)cc2C(=O)N2CCN(C(=O)C(O)c3cccc(C(F)(F)F)c3)CC12` (stereo not drawn) [Compound A45, 7-(4-Chlorophenyl)-2-[2-hydroxy-2-(3-trifluoro-methylphenyl)acetyl]-1,3,4,11a-tetrahydro-2H,10H-2,4a,10-triazadibenzo[a,d]cycloheptene-5,11-dione], the remaining activity at 10 µM amounted to 61% and the half-inhibitory concentration (IC50) was over 1000 nM.

For the compound `CC(C)(C(=O)N1CCN2C(=O)c3cc(-c4ccc(Cl)cc4)ccc3NC(=O)C2C1)c1ccccc1` (stereo not drawn) [Compound A46, 7-(4-Chlorophenyl)-2-(2-methyl-2-phenylpropionyl)-1,3,4,11a-tetrahydro-2H,10H-2,4a,10-triaza-dibenzo[a,d]cycloheptene-5,11-dione], the IC50 is over 1000 nM. `O=C1Nc2ccc(-c3ccc(Cl)cc3)cc2C(=O)N2CCN(C(=O)C3(c4ccc(Cl)cc4)CC3)CC12` (stereo not drawn) [Compound A47, 7-(4-Chlorophenyl)-2-[1-(4-chlorophenyl)-cyclopropanecarbonyl]-1,3,4,11a-tetrahydro-2H,10H-2,4a,10-triazadibenzo[a,d]cycloheptene-5,11-dione]: the IC50 was over 1000 nM. Regarding `O=C1Nc2ccc(-c3ccc(Cl)cc3)cc2C(=O)N2CCN(C(=O)Nc3ccccc3)CC12` (stereo not drawn) [Compound A48, N-Phenyl-7-(4-chlorophenyl)-5,11-dioxo-3,4,5,10,11,11a-hexahydro-1H-2,4a,10-triaza-dibenzo[a,d]cycloheptene-2-carboxamide], the remaining activity at 10 µM came out at 20% and the IC50 is over 1000 nM.
